Usually melting point stands for the temperature, or range, at which the solid turns liquid.

This passage reports melting point and sedation results from patent US6403626B1, “Benzimidazole derivatives” (Synaptic Pharmaceutical Corporation, priority 1994, dated 2002).

Series [1] has as its system Adult rhesus monkeys (Macaca mulatta). The series can be described thus: Sedation and muscle relaxation rating. Conditions: subcutaneous, cumulative dosing 0.1-3.2 mg/kg, versus clonidine 0.032-1.0 mg/kg. The format is in vivo. The source says: Subjects. Adult rhesus monkeys (Macaca mulatta) of either sex were housed individually with free access to water. They were fed fresh fruit weekly and approximately 40 biscuits (Purina Monkey Chow) daily.
Procedure. Monkeys were trained to receive subcutaneous injections while in their home cages; they were rated by one non-blind observer familiar with the individual subjects, according to modified rating scales for sedation and muscle relaxation (Table 2); Separate scales describe increasing degrees of sedation (as measured by responsiveness to stimuli) and muscle relaxation (as observed through changes in posture). Animals were injected in a cumulative dosing procedure with a 30 minute interinjection interval; observer rating on both scales took place approximately 15 minutes after each injection.
Design. […] The same three monkeys were typically studied under each se of conditions.

The compound `Cn1cnc2c(Br)c(NC3=NCCN3)ccc21` [Example 10, 1-Methyl-4-bromo-5-(2-imidazolin-2-ylamino)Benzimidazole] yielded a melting point of 237 to 238 °C. Regarding `Cc1c(N=C2NCCN2)ccc2[nH]cnc12` [Example 4, 4-Methyl-5-(2-imidazolin-2-ylamino)Benzimidazole], the sedation entry in series [1] is given as “decreased sedation relative to the reference compound, clonidine”.
